Experimental data reported in ChEMBL document CHEMBL5608246, “Membrane-Targeting Amphiphilic Honokiol Derivatives Containing an Oxazole Moiety as Potential Antibacterials against Methicillin-Resistant Staphylococcus aureus” (J Med Chem, 2024).
Active and inactive are the calls of the source. No cut-off for these calls is given here.

Legend:
Cell membrane = assay: Induction of membrane permeability in methicillin resistant Staphylococcus aureus 20 at 32 ug/ml measured at 2 mins interval over 20 mins by SYTOX green staining based assay; conditions: dose 32.0 µg/ml
Staphylococcus aureus [1] = assay: Bactericidal activity against Staphylococcus aureus ATCC 29213 at 8 times MIC within 8 hrs by time kill assay; type: functional, organism-based
Staphylococcus aureus [2] = assay: Antibacterial activity against methicillin resistant Staphylococcus aureus 20 infected in Kunming mouse skin abscess model assessed as reduction in inflammatory cells in infection sites at 5 mg/kg, sc measured after 2 hrs; type: functional, organism-based
Staphylococcus aureus [3] = assay: Antibacterial activity against methicillin resistant Staphylococcus aureus 20 infected in Kunming mouse skin abscess model assessed as reduction in bacterial load at 5 mg/kg, sc measured after 2 hrs; type: functional; parameters: scale not given: the % may be the effect or the level left
Staphylococcus aureus [4] = assay: Antibacterial activity against methicillin resistant Staphylococcus aureus 20 infected in Kunming mouse skin abscess model assessed as reduction in TNF-alpha level at 5 mg/kg, sc measured after 2 hrs by ELISA; type: functional, organism-based
Staphylococcus aureus [5] = assay: Antibacterial activity against methicillin resistant Staphylococcus aureus 20 infected in Kunming mouse skin abscess model assessed as reduction in IL-6 level at 5 mg/kg, sc measured after 2 hrs by ELISA; type: functional, organism-based
[6] = Toxicity in Kunming mouse skin abscess model infected with methicillin resistant Staphylococcus aureus assessed as heart damage at 5 mg/kg, sc measured after 2 hrs by H and E staining based assay; type: organism-based; conditions: in vivo
[7] = Toxicity in Kunming mouse skin abscess model infected with methicillin resistant Staphylococcus aureus assessed as liver damage at 5 mg/kg, sc measured after 2 hrs by H and E staining based assay; type: organism-based; conditions: in vivo
[8] = Toxicity in Kunming mouse skin abscess model infected with methicillin resistant Staphylococcus aureus assessed as spleen damage at 5 mg/kg, sc measured after 2 hrs by H and E staining based assay; type: organism-based; conditions: in vivo
[9] = Toxicity in Kunming mouse skin abscess model infected with methicillin resistant Staphylococcus aureus assessed as lungs damage at 5 mg/kg, sc measured after 2 hrs by H and E staining based assay; type: organism-based; conditions: in vivo
[10] = Toxicity in Kunming mouse skin abscess model infected with methicillin resistant Staphylococcus aureus assessed as kidneys damage at 5 mg/kg, sc measured after 2 hrs by H and E staining based assay; type: organism-based; conditions: in vivo
Staphylococcus aureus [11] = assay: Antibacterial activity against Staphylococcus aureus ATCC 29213 incubated for 16 to 18 hrs by broth dilution method; type: functional; conditions: time 16-18 hrs
Staphylococcus aureus [12] = assay: Antibacterial activity against methicillin resistant Staphylococcus aureus N315 incubated for 16 to 18 hrs by broth dilution method; type: functional; conditions: time 16-18 hrs
Staphylococcus aureus [13] = assay: Antibacterial activity against methicillin resistant Staphylococcus aureus M11 incubated for 16 to 18 hrs by broth dilution method; type: functional; conditions: time 16-18 hrs
Staphylococcus aureus [14] = assay: Antibacterial activity against methicillin resistant Staphylococcus aureus M12 incubated for 16 to 18 hrs by broth dilution method; type: functional; conditions: time 16-18 hrs
Staphylococcus aureus [15] = assay: Antibacterial activity against methicillin resistant Staphylococcus aureus M13 incubated for 16 to 18 hrs by broth dilution method; type: functional; conditions: time 16-18 hrs
Staphylococcus aureus [16] = assay: Antibacterial activity against methicillin resistant Staphylococcus aureus M14 incubated for 16 to 18 hrs by broth dilution method; type: functional; conditions: time 16-18 hrs
Staphylococcus aureus [17] = assay: Antibacterial activity against methicillin resistant Staphylococcus aureus M16 incubated for 16 to 18 hrs by broth dilution method; type: functional; conditions: time 16-18 hrs
Staphylococcus aureus [18] = assay: Antibacterial activity against methicillin resistant Staphylococcus aureus M17 incubated for 16 to 18 hrs by broth dilution method; type: functional; conditions: time 16-18 hrs
Staphylococcus aureus [19] = assay: Antibacterial activity against methicillin resistant Staphylococcus aureus M20 incubated for 16 to 18 hrs by broth dilution method; type: functional; conditions: time 16-18 hrs
Staphylococcus aureus [20] = assay: Antibacterial activity against methicillin resistant Staphylococcus aureus M21 incubated for 16 to 18 hrs by broth dilution method; type: functional; conditions: time 16-18 hrs
Staphylococcus aureus [21] = assay: Antibacterial activity against methicillin resistant Staphylococcus aureus M22 incubated for 16 to 18 hrs by broth dilution method; type: functional; conditions: time 16-18 hrs
Staphylococcus aureus [22] = assay: Antibacterial activity against methicillin resistant Staphylococcus aureus M23 incubated for 16 to 18 hrs by broth dilution method; type: functional; conditions: time 16-18 hrs
Escherichia coli = assay: Antibacterial activity against Escherichia coli ATCC 25922 incubated for 16 to 18 hrs by broth dilution method; type: functional; conditions: time 16-18 hrs
[23] = Hemolytic activity in sheep RBC incubated for 1 hr; type: toxicity, cell-based, Ovis aries, Erythrocyte; conditions: sheep red blood cells (erythrocytes)
[24] = Selectivity index, ratio of HC50 for sheep RBC to MIC for Staphylococcus aureus ATCC 29213; type: toxicity; conditions: sheep red blood cells, read-out: Selectivity Index
Staphylococcus aureus [25] = assay: Antibacterial activity against Staphylococcus aureus ATCC 29213 assessed as resistance development by measuring fold increase in MIC after 20 passages incubated for 16 to 18 hrs; type: functional; conditions: time 16-18 hrs

SMILES	MIC (Staphylococcus aureus [11])	MIC (Staphylococcus aureus [12])	MIC (Staphylococcus aureus [13])	MIC (Staphylococcus aureus [14])	MIC (Staphylococcus aureus [15])	MIC (Staphylococcus aureus [16])	MIC (Staphylococcus aureus [17])	MIC (Staphylococcus aureus [18])	MIC (Staphylococcus aureus [19])	MIC (Staphylococcus aureus [20])	MIC (Staphylococcus aureus [21])	MIC (Staphylococcus aureus [22])	MIC (Escherichia coli)	HC50 at 1 h [23]	selectivity ratio [24]	other results
CC[C@H](C)[C@H](NC(=O)CN)C(=O)NCC(=O)N[C@@H](C)C(=O)N[C@H](C(=O)N[C@@H](CC(C)C)C(=O)N[C@@H](CCCCN)C(=O)N[C@H](C(=O)N[C@@H](CC(C)C)C(=O)N[C@H](C(=O)N[C@H](C(=O)NCC(=O)N[C@@H](CC(C)C)C(=O)N1CCC[C@H]1C(=O)N[C@@H](C)C(=O)N[C@@H](CC(C)C)C(=O)N[C@H](C(=O)N[C@@H](CO)C(=O)N[C@@H](Cc1c[nH]c2ccccc12)C(=O)N[C@H](C(=O)N[C@@H](CCCCN)C(=O)N[C@@H](CCCNC(=N)N)C(=O)N[C@@H](CCCCN)C(=O)N[C@@H](CCCNC(=N)N)C(=O)N[C@@H](CCC(N)=O)C(=O)N[C@@H](CCC(N)=O)C(N)=O)[C@@H](C)CC)[C@@H](C)CC)[C@@H](C)O)[C@@H](C)O)C(C)C)C(C)C																Activity (Cell membrane): Active
CN[C@H](CC(C)C)C(=O)N[C@H]1C(=O)N[C@@H](CC(N)=O)C(=O)N[C@H]2C(=O)N[C@H]3C(=O)N[C@H](C(=O)N[C@H](C(=O)O)c4cc(O)cc(O)c4-c4cc3ccc4O)[C@H](O)c3ccc(c(Cl)c3)Oc3cc2cc(c3O[C@@H]2O[C@H](CO)[C@@H](O)[C@H](O)[C@H]2O[C@H]2C[C@](C)(N)[C@H](O)[C@H](C)O2)Oc2ccc(cc2Cl)[C@H]1O [VANCOMYCIN]																Activity (Staphylococcus aureus [1]): inactive; Activity (Staphylococcus aureus [2]): Active; Activity (Staphylococcus aureus [3]): 95.62%; Activity (Staphylococcus aureus [4]): Active; Activity (Staphylococcus aureus [5]): Active; Activity [6]: Non-Toxic; Activity [7]: Non-Toxic; Activity [8]: Non-Toxic; Activity [9]: Non-Toxic; Activity [10]: Non-Toxic
C=CCc1cc(-c2ccc(OCCC[N+](C)(C)CC(=O)NCCCC)c(CC=C)c2)c2oc(-c3ccc(Cl)c(F)c3)nc2c1.[Br-]	64 µg/mL	8 µg/mL	8 µg/mL	16 µg/mL	8 µg/mL	4 µg/mL	8 µg/mL	16 µg/mL	8 µg/mL	8 µg/mL	8 µg/mL	8 µg/mL	128 µg/mL	81 µg/mL	1.3	
C=CCc1cc(-c2ccc(OCCC[N+](C)(C)CC(=O)NCCCC)c(CC=C)c2)c2oc(-c3ccc(C(F)(F)F)cc3)nc2c1.[Br-]	128 µg/mL	128 µg/mL	8 µg/mL	16 µg/mL	8 µg/mL	16 µg/mL	8 µg/mL	32 µg/mL	8 µg/mL	8 µg/mL	32 µg/mL	8 µg/mL	128 µg/mL	59.5 µg/mL	0.5	
C=CCc1cc(-c2ccc(OCCC[N+](C)(C)CC(=O)NCCCC)c(CC=C)c2)c2oc(-c3ccc(F)cc3)nc2c1.[Br-]	32 µg/mL	16 µg/mL	16 µg/mL	16 µg/mL	8 µg/mL	8 µg/mL	8 µg/mL	8 µg/mL	8 µg/mL	8 µg/mL	8 µg/mL	8 µg/mL	> 128 µg/mL	> 320 µg/mL	> 10	
C=CCc1cc(-c2ccc(OCCC[N+](C)(C)CC(=O)NCCCC)c(CC=C)c2)c2oc(-c3cc(Cl)cc(Cl)c3)nc2c1.[Br-]	128 µg/mL	128 µg/mL	> 128 µg/mL	128 µg/mL	32 µg/mL	64 µg/mL	64 µg/mL	32 µg/mL	128 µg/mL	32 µg/mL	128 µg/mL	128 µg/mL	> 128 µg/mL	81.3 µg/mL	0.6	
C=CCc1cc(-c2ccc(OCCC[N+](C)(C)CC(=O)NCCCC)c(CC=C)c2)c2oc(-c3cccc(Cl)c3Cl)nc2c1.[Br-]	32 µg/mL	8 µg/mL	16 µg/mL	8 µg/mL	16 µg/mL	4 µg/mL	8 µg/mL	4 µg/mL	4 µg/mL	8 µg/mL	8 µg/mL	8 µg/mL	128 µg/mL	39.5 µg/mL	1.2	
C=CCc1cc(-c2ccc(OCCC[N+](C)(C)CC(=O)NCCCC)c(CC=C)c2)c2oc(-c3ccc(Br)cc3)nc2c1.[Br-]	64 µg/mL	64 µg/mL	8 µg/mL	16 µg/mL	8 µg/mL	8 µg/mL	8 µg/mL	16 µg/mL	8 µg/mL	8 µg/mL	16 µg/mL	8 µg/mL	128 µg/mL	> 320 µg/mL	> 5	
C=CCc1cc(-c2ccc(OCCC[N+](C)(C)CC(=O)NCCCC)c(CC=C)c2)c2oc(-c3cc(Br)cc(Br)c3)nc2c1.[Br-]	128 µg/mL	128 µg/mL	128 µg/mL	> 128 µg/mL	> 128 µg/mL	128 µg/mL	128 µg/mL	128 µg/mL	> 128 µg/mL	64 µg/mL	128 µg/mL	128 µg/mL	128 µg/mL	205 µg/mL	1.6	
C=CCc1cc(-c2ccc(OCCC[N+](C)(C)CC(=O)NCCCC)c(CC=C)c2)c2oc(-c3ccc(F)c(F)c3)nc2c1.[Br-]	8 µg/mL	32 µg/mL	8 µg/mL	8 µg/mL	4 µg/mL	4 µg/mL	4 µg/mL	4 µg/mL	4 µg/mL	4 µg/mL	16 µg/mL	4 µg/mL	> 128 µg/mL	222 µg/mL	27.7	
CCn1cc(C(=O)O)c(=O)c2cc(F)c(N3CCNCC3)cc21 [NORFLOXACIN]																fold change (FC) (Staphylococcus aureus [25]): 128
C=CCc1cc(-c2ccc(OCCC[N+](C)(C)CC(=O)NCCCC)c(CC=C)c2)c2oc(-c3ccccc3)nc2c1.[Br-]	8 µg/mL	16 µg/mL	2 µg/mL	2 µg/mL	2 µg/mL	4 µg/mL	4 µg/mL	1 µg/mL	2 µg/mL	2 µg/mL	2 µg/mL	2 µg/mL	> 128 µg/mL	> 160 µg/mL	> 20	
C=CCc1cc(-c2ccc(OCCC[N+](C)(C)CC(=O)NCCCC)c(CC=C)c2)c2oc(-c3cccc(Br)c3)nc2c1.[Br-]	32 µg/mL	64 µg/mL	8 µg/mL	8 µg/mL	8 µg/mL	8 µg/mL	8 µg/mL	8 µg/mL	8 µg/mL	8 µg/mL	8 µg/mL	8 µg/mL	> 128 µg/mL	> 320 µg/mL	> 10	
